Structures can show the parent of a compound that is named as a salt.

This is an account of results in patent US20210205223A1, “PROPELLANT-FREE FORMULATION FOR INHALATION” (priority 2020, published 2021).

For this data set the following is noted: solution of sample 1 from soft mist inhaler; ACI 28.3 L/minute, ambient temperature, RH 90%.

Protocol: The aerodynamic particle size distribution was determined using an Andersen Scale Impactor (ACI). The soft mist inhaler was held close to the ACI inlet until no aerosol was visible. The flow rate of the ACI was set to 28.3 L/minute and was operated under ambient temperature and a relative humidity (RH) of 90%.
Fractions of the dose were deposited at different stages of the ACI, in accordance with the particle size of the fraction. Each fraction was washed from the stage and analyzed using HPLC.
The particle size distribution was expressed in terms of mass median aerodynamic diameter (MMAD) and Geometric Standard Deviation (GSD).

On to `COc1ccc(CC(C)NCC(O)c2ccc(O)c(NC=O)c2)cc1` (centres unmarked) [Formoterol fumarate, N-[2-hydroxy-5-(1-hydroxy-2-((2-(4-methoxyphenyl)-1-methylethy-1)amino)-ethyl)phenyl] formamide], for which the “MMAD (mass median aerodynamic diameter)” value came to 4.49 μm.

In the case of `C[N+]1(C)CCC(OC(=O)C(O)(c2ccccc2)C2CCCC2)C1.[Br-]` (centres unmarked) [Glycopyrronium bromide], the “MMAD (mass median aerodynamic diameter)” value was found to be 4.91 μm.
